# Experimental data reported in ChEMBL document CHEMBL1125012, “Inhibition of enzymes of estrogen and androgen biosynthesis by esters of 4-pyridylacetic acid” (J Med Chem, 1990).
# Where “and” joins values, the source holds several entries; their conditions need not be identical. Equal values may be shown once.
# Target: T1, Steroid 17-alpha-hydroxylase/17,20 lyase (Rattus norvegicus, UniProt P11715)
# T1 sequence (P11715 whole entry): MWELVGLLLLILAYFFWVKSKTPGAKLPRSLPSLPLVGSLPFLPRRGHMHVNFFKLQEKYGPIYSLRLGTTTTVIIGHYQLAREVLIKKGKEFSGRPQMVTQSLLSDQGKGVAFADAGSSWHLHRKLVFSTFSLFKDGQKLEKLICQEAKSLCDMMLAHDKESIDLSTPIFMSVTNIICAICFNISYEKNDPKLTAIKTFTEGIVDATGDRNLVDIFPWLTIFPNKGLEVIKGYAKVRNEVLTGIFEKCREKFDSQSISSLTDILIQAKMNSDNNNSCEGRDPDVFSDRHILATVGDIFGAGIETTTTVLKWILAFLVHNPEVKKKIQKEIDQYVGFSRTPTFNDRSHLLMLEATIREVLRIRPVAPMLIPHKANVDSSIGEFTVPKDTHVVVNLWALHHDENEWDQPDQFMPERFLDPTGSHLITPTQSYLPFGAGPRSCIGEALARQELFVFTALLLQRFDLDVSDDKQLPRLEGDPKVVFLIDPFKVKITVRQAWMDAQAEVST
row,IC50,Structure (SMILES)
1,2.7 µM and 2 µM,CCC1CCC(OC(=O)Cc2ccncc2)CC1 (stereo unspecified)
2,> 100 µM,CC(C)OC(=O)Cc1ccncc1
3,3 µM and 2.1 µM,CC(C)(C)C1CCC(OC(=O)Cc2ccncc2)CC1 (stereo unspecified)
4,4.5 µM and 3.6 µM,CC(C)(C(=O)OC1CCCCC1)c1ccncc1
5,0.61 µM and 0.56 µM,O=C(Cc1ccncc1)OC12CC3CC(CC(C3)C1)C2
6,17 µM and 13 µM,CC(C)CC(C)OC(=O)Cc1ccncc1 (stereo unspecified)
7,32 µM and 28 µM,CC1CCC(OC(=O)Cc2ccncc2)C1 (stereo unspecified)
8,11 µM and 10 µM,CC1(OC(=O)Cc2ccncc2)CCCCC1
9,131 µM and 77 µM,O=C(Cc1ccncc1)OC1CCCC1
10,> 100 µM,O=C(Cc1ccncc1)Oc1ccccc1
11,> 100 µM,CC(C)CCOC(=O)Cc1ccncc1
12,2.2 µM and 1.5 µM,"CC1(C)C2CCC1(C)C(OC(=O)Cc1ccncc1)C2 (single isomer, unassigned; (-))"
13,36 µM and 25 µM,CC1CCC(OC(=O)Cc2ccncc2)CC1 (stereo in doubt; 6)
14,5.1 µM and 4.5 µM,CC1CCC(C(C)C)C(OC(=O)Cc2ccncc2)C1 (stereo in doubt; 12)
15,15 µM and 12 µM,CC1CCC(C(C)C)C(OC(=O)Cc2ccncc2)C1 (stereo in doubt; 13)
16,41 µM and 31 µM,O=C(Cc1ccncc1)OC1=CC2CCC1C2 (stereo in doubt; 14)
17,46 µM and 45 µM,O=C(Cc1ccncc1)OC1=CC2CCC1C2 (stereo in doubt; 15)
18,0.54 µM and 0.59 µM,CC1(C)C2CCC1(C)C(OC(=O)Cc1ccncc1)C2 (stereo in doubt; 17)
19,0.28 µM and 0.26 µM,CC1C(OC(=O)Cc2ccncc2)CC2CC1C2(C)C (stereo in doubt; 18)
20,1.8 µM and 1.7 µM,CC1C(OC(=O)Cc2ccncc2)CC2CC1C2(C)C (stereo in doubt; 19)
21,4.4 µM and 4.2 µM,CC1CCC(OC(=O)Cc2ccncc2)CC1 (trans isomer)
